Experimental data: US11180484B2, “Pyrazole derivatives as plasma kallikrein inhibitors” (KALVISTA PHARMACEUTICALS LIMITED, priority 2016, dated 2021)

Columns and labels:
[1] = Plasma protein binding (PPB), rapid equilibrium dialysis, human plasma; format: in vitro ADME; conditions: 5 μM test compound, dialysis 5 hrs at 37° C.
Procedure: The fraction unbound in plasma was determined using ThermoScientific™ Pierce™ Rapid Equilibrium Dialysis Technology (Single-Use plate with inserts, 8K MWCO). […] Reference samples from the non-dialysed plasma were taken before the incubation to enable an assessment of recovery. Test compound concentrations were determined in plasma and buffer compartments by LCMS against a calibration curve. […] Results are presented as percent plasma protein bound (% PPB).

[2] = Plasma protein binding (PPB), rapid equilibrium dialysis, rat plasma; format: in vitro ADME; conditions: 5 μM test compound, dialysis 5 hrs at 37° C.
Procedure: The fraction unbound in plasma was determined using ThermoScientific™ Pierce™ Rapid Equilibrium Dialysis Technology (Single-Use plate with inserts, 8K MWCO). 5 μM test compound was spiked into human or rat plasma (300 μL) and dialysed against 146.5 mM phosphate buffer (500 μL) for 5 hrs at 37° C., shaking at 1200 rpm. Reference samples from the non-dialysed plasma were taken before the incubation to enable an assessment of recovery. Test compound concentrations were determined in plasma and buffer compartments by LCMS against a calibration curve. The fraction unbound in plasma was determined using standard methodology (Waters N J et al (2008) J Pharm Sci 97(10); 4586-95). Results are presented as percent plasma protein bound (% PPB).

[3] = In vitro permeability, Caco-2 model for oral absorption; format: in vitro ADME; conditions: human, apical to basolateral, 50 μM test compound, 37° C.
Procedure: In vitro permeability was determined using the Caco-2 model for oral absorption. The methodology was adapted from standard published methods (Wang Z, Hop C. E., Leung K. H. and Pang J. (2000) J Mass Spectrom 35(1); 71-76). The Caco-2 monolayers were established in a Biocoat™ HTS fibrillar collagen 24 well multiwell insert system (1.0 μm, PET membrane, Corning 354803) in which 200,000 cells were seeded into each insert and maintained over 3 days before being utilised in the permeability assay. For the assay, 50 μM test compound is added to the apical side of the inserts and incubated for 1 hour at 37° C. on a shaking platform (120 rpm). Apical to basolateral transport was determined by measuring the test article in both compartments by LCMS following the 1 hour incubation. The integrity of the Caco-2 monolayers was confirmed by two methods, (i) comparison of pre- and post-experiment transepithelial electrical resistance (TEER) and, (ii) assessment of Lucifer Yellow flux.

Human KLK1 = Human KLK1 (Homo sapiens (Human), UniProt P06870); experiment: Determination of the IC50 for KLK1; format: biochemical; conditions: 25° C., substrate H-DVal-Leu-Arg-AFC
Chain of Human KLK1 (P06870 25-262): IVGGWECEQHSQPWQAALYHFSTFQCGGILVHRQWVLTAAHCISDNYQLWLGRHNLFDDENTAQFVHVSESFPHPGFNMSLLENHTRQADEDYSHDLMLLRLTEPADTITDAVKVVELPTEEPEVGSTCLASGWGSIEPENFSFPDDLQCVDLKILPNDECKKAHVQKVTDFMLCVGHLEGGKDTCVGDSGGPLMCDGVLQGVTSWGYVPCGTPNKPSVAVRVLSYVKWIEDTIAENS
Procedure: (§1) Human KLK1 (Callbiochem) was incubated at 25° C. with the fluorogenic substrate H-DVal-Leu-Arg-AFC and various concentrations of the test compound. Residual enzyme activity (initial rate of reaction) was determined by measuring the change in […] at 410 nm and the IC50 value for the test compound was determined.

Human FXIa = Human FXIa (Homo sapiens (Human), UniProt P03951); experiment: Determination of the % inhibition / IC50 for FXIa; format: biochemical; conditions: for IC50: 25° C., substrate Z-Gly-Pro-Arg-AFC
Chain of Human FXIa (P03951 388-625): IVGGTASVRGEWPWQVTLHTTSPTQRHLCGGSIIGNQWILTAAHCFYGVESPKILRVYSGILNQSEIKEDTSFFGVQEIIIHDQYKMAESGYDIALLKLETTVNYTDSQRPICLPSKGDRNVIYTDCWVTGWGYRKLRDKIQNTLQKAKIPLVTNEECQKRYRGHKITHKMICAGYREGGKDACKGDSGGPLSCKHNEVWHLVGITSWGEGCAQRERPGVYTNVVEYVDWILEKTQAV
Chain of Human FXIa (P03951 19-387): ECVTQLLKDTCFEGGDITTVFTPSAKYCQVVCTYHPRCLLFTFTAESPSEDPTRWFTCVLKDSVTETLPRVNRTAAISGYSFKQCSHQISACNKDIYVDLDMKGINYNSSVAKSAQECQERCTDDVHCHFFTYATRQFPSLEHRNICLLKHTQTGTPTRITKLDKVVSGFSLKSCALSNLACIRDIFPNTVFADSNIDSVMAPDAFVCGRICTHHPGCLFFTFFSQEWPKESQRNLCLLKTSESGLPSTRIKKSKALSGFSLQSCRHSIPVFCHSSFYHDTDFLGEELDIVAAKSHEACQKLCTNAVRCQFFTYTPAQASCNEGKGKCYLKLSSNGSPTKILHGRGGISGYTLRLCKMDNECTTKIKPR
Procedure: FXIa inhibitory activity in vitro was determined using standard published methods (see e.g. Johansen et al., Int. J. Tiss. Reac. 1986, 8, 185; Shori et al., Biochem. Pharmacol., 1992, 43, 1209; Sturzebecher et al., Biol. Chem. Hoppe-Seyler, 1992, 373, 1025). […]

[4] = Intrinsic clearance in rat liver microsomes; format: in vitro ADME; conditions: rat liver microsomes 0.5 mg/mL, 5 μM test compound, 37° C.; read-out: rat liver microsome (Clint μL/min/mg protein)
Procedure: (§2) Rat or human liver microsomes (0.5 mg/mL; Corning) were incubated with 5 μM test compound at 37° C. on a shaking platform (150 rpm). Samples were taken at 0, 6, 12, 18, 24 and 60 min and test compound concentrations were determined by LCMS against a calibration curve.

[5] = Intrinsic clearance in human liver microsomes; format: in vitro ADME; conditions: human liver microsomes 0.5 mg/mL, 5 μM test compound, 37° C.; read-out: Human liver microsome (Clint μL/min/mg protein)
Procedure: as §2

[6] = Predicted plasma clearance (Clp), well-stirred model, human; format: in vitro ADME; conditions: percentage of hepatic blood flow
Procedure: (§3) The predicted plasma clearance (Clp) is calculated using the well-stirred model (Rowland M, Benet L Z, and Graham G G. Clearance concepts in pharmacokinetics. J Pharmacokinet Biopharm. (1973) 1:123-136.), one of several models that can be used to extrapolate the in vitro data. The model assumes instantaneous and complete mixing of drug within the liver and is a function of intrinsic clearance, hepatic blood flow and free fraction of drug in the blood. The predicted plasma clearance in mL/min/kg is presented as a percentage of hepatic blood flow (LBF).

Human plasma kallikrein [7] = molecular target: T1, Human plasma kallikrein (Homo sapiens (Human), UniProt P03952); experiment: Determination of the IC50 for plasma kallikrein; format: biochemical; conditions: 25° C., substrate H-DPro-Phe-Arg-AFC; read-out: IC50 (human PKal)
T1 sequence (P03952 391-638): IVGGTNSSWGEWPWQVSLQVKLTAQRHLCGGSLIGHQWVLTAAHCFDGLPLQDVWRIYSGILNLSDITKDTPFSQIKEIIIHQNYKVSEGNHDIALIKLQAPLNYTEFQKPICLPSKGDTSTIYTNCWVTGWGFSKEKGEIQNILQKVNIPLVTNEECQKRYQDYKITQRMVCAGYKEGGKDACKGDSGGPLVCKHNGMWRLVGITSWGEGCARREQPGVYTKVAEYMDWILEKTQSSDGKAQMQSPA
T1 sequence (P03952 20-390): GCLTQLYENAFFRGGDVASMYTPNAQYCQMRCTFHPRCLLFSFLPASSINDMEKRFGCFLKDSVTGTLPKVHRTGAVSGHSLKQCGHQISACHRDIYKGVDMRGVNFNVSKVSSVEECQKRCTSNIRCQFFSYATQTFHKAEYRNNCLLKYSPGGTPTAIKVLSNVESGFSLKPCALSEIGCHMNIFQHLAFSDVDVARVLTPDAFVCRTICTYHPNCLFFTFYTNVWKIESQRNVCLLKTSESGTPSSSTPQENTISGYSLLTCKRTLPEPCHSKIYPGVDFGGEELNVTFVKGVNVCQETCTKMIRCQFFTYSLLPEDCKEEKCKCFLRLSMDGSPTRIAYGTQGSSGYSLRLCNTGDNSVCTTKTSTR
Procedure: as §1, with “plasma kallikrein (Protogen)” for “KLK1 (Callbiochem)”, “H-DPro-Phe-Arg-AFC” for “H-DVal-Leu-Arg-AFC”

Human Factor XIIa = Human Factor XIIa (Homo sapiens (Human), UniProt P00748); experiment: Factor XIIa inhibitory activity in vitro; format: biochemical; conditions: 25° C., substrate H-DPro-Phe-Arg-AFC; read-out: IC50 (human FXIIa)
Chain of Human Factor XIIa (P00748 373-615): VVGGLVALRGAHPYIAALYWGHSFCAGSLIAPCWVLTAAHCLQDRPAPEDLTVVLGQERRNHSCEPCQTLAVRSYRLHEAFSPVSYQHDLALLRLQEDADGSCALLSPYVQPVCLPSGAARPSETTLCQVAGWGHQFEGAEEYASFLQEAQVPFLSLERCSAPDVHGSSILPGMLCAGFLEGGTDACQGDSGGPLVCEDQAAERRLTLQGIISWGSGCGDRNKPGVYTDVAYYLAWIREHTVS
Procedure: as §1, with “Factor XIIa (Enzyme Research Laboratories)” for “KLK1 (Callbiochem)”, “H-DPro-Phe-Arg-AFC” for “H-DVal-Leu-Arg-AFC”

[8] = Predicted plasma clearance (Clp), well-stirred model, rat; format: in vitro ADME; conditions: percentage of hepatic blood flow
Procedure: as §3

Human plasma kallikrein [9] = molecular target: T1, Human plasma kallikrein; experiment: Determination of the Ki for plasma kallikrein (mixed-model inhibition); format: biochemical; conditions: for Ki: human plasma kallikrein, mixed-model inhibition equation; for Alpha: parameter of the mixed-model equation indicating mechanism of inhibition
Procedure: Plasma kallikrein inhibitory activity in vitro was determined using standard published methods (e.g. Johansen et al., Int. J. Tiss. Reac. 1986, 8, 185; Shori et al., Biochem. Pharmacol., 1992, 43, 1209; Sturzebecher et al., Biol. Chem. Hoppe-Seyler, 1992, 373, 1025). […]. Residual enzyme activity (initial rate of reaction) was determined by measuring the change in fluorescence at 410 nm. The Ki value for the test compound was determined using the mixed-model inhibition equation (based on Equation 3.2 in: RA Copeland, Evaluation of Enzyme Inhibitors in Drug Discovery, Wiley 2005) in GraphPad Prism. The mixed model equation includes competitive, uncompetitive and noncompetitive inhibition as special cases and the parameter of Alpha to indicate mechanism of inhibition.

fraction unbound at 5 h, 5 μM [1]	fraction unbound at 5 h, 5 μM [2]	Papp at 1 h, 50 μM [3]	IC50 (Human KLK1)	IC50 (Human FXIa)	microsomal CLint at 5 μM [4]	microsomal CLint at 5 μM [5]	Predicted in vivo human Clp (% LBF) [6]	IC50 (Human plasma kallikrein [7])	IC50 (Human Factor XIIa)	Predicted in vivo rat Clp (% LBF) [8]	inhibition at 40 µM (Human FXIa; 40 μM test compound, read-out: % Inhibition @ 40 μM (human FXIa))	Ki (Human plasma kallikrein [9])	Alpha (Human plasma kallikrein [9])	Compound
0.23	0.36	2 ×10⁻⁶ cm/s	> 40 µM	> 40 µM	6 µL/min/mg	3 µL/min/mg	3 % LBF	2 nM	> 40 µM	5 % LBF				COc1ccnc(CNC(=O)c2cn(Cc3ccc(Cn4ccccc4=O)cc3)nc2N)c1F [Example 5, 3-amino-N-[(3-fluoro-4-methoxypyridin-2-yl)methyl]-1-({4-[(2-oxopyridin-1-yl)methyl]phenyl}methyl)pyrazole-4-carboxamide]
0.09	0.03	25 ×10⁻⁶ cm/s	> 40 µM	4.7 µM	114 µL/min/mg	90 µL/min/mg	35 % LBF	0.9 nM	> 40 µM	12 % LBF	90%	0.3 nM	1.6	COCc1nn(Cc2ccc(Cn3cc(C)cn3)cc2)cc1C(=O)NCc1c(-n2cnnn2)ccc(OC)c1F [Example 60, N-{[2-fluoro-3-methoxy-6-(1,2,3,4-tetrazol-1-yl)phenyl]methyl}-3-(methoxymethyl)-1-({4-[(4-methylpyrazol-1-yl)methyl]phenyl}methyl)pyrazole-4-carboxamide]
0.08	0.04	22 ×10⁻⁶ cm/s	> 4 µM	> 40 µM	132 µL/min/mg	55 µL/min/mg	4 % LBF	1.7 nM	> 4 µM	15 % LBF				COCc1nn(Cc2ccc(Cn3cc(C)cn3)cc2)cc1C(=O)NCc1cc(OC)ccc1-n1cnnn1 [Example 61, N-{[5-methoxy-2-(1,2,3,4-tetrazol-1-yl)phenyl]methyl}-3-(methoxymethyl)-1-({4-[(4-methylpyrazol-1-yl)methyl]phenyl}methyl)pyrazole-4-carboxamide]
0.08	0.09	6 ×10⁻⁶ cm/s	> 4 µM	> 40 µM	94 µL/min/mg	35 µL/min/mg	19 % LBF	0.6 nM	> 4 µM	33 % LBF				O=C(NCc1c(F)cccc1-n1cnnn1)c1cn(Cc2ccc(Cn3ccccc3=O)cc2)nc1C(F)(F)F [Example 64, N-{[2-fluoro-6-(1,2,3,4-tetrazol-1-yl)phenyl]methyl}-1-({4-[(2-oxopyridin-1-yl)methyl]phenyl}methyl)-3-(trifluoromethyl)pyrazole-4-carboxamide]
		23 ×10⁻⁶ cm/s	> 40 µM	0.23 µM				0.3 nM	> 40 µM			0.53 nM	2.24	COc1ccc(-n2cnnn2)c(CNC(=O)c2cn(Cc3ccc(N4CCCC4)nc3)nc2C(F)(F)F)c1F [Example 83, N-{[2-fluoro-3-methoxy-6-(1,2,3,4-tetrazol-1-yl)phenyl]methyl}-1-{[6-(pyrrolidin-1-yl)pyridin-3-yl]methyl}-3-(trifluoromethyl)pyrazole-4-carboxamide]
			> 40 µM	4.88 µM				8.3 nM	> 40 µM			2.9 nM		COCc1nn(Cc2cnc(N3CCC(F)(F)C3)nc2)cc1C(=O)NCc1cc(OC)ccc1-n1cnnn1 [Example 88, 1-{[2-(3,3-difluoropyrrolidin-1-yl)pyrimidin-5-yl]methyl}-N-{[5-methoxy-2-(1,2,3,4-tetrazol-1-yl)phenyl]methyl}-3-(methoxymethyl)pyrazole-4-carboxamide]
			> 10 µM	> 40 µM					> 40 µM			6.7 nM	48	COc1cccc(CNC(=O)c2cn(Cc3ccc(Cn4ccccc4=O)cc3)nc2N)c1F [Reference Example B, 3-Amino-1-[4-(2-oxo-2H-pyridin-1-ylmethyl)-benzyl]-1H-pyrazole-4-carboxylic acid 2-fluoro-3-methoxy-benzylamide, reference compound]

Compound	fraction unbound at 5 h, 5 μM [1]	fraction unbound at 5 h, 5 μM [2]	Papp at 1 h, 50 μM [3]	IC50 (Human KLK1)	IC50 (Human FXIa)	microsomal CLint at 5 μM [4]	microsomal CLint at 5 μM [5]	Predicted in vivo human Clp (% LBF) [6]	IC50 (Human plasma kallikrein [7])	IC50 (Human Factor XIIa)	Predicted in vivo rat Clp (% LBF) [8]	inhibition at 40 µM (Human FXIa; 40 μM test compound, read-out: % Inhibition @ 40 μM (human FXIa))	Ki (Human plasma kallikrein [9])	Alpha (Human plasma kallikrein [9])
COCc1nn(Cc2ccc(Cn3cccn3)cc2)cc1C(=O)NCc1cccc(Cl)c1 [Reference Example I, reference compound]			15 ×10⁻⁶ cm/s	> 40 µM	> 40 µM	153 µL/min/mg	77 µL/min/mg		2020 nM	> 40 µM				
COCc1nn(Cc2ccc(Cn3cccn3)cc2)cc1C(=O)NCc1cccc(Cl)c1F [Reference Example J, reference compound]			12 ×10⁻⁶ cm/s	> 40 µM	> 40 µM	187 µL/min/mg	110 µL/min/mg		2870 nM	> 40 µM				
